Assay type in all cases: in vivo
Assay [1] relates to Blumeria graminis f.sp. tritici. Description: Greenhouse wheat powdery mildew (WPM) antisporulation test. The settings on record: Table III; adjuvant alone, NOP 1000 ppm, BB-4 0 ppm. Further details: key: +++: complete (no spore release); ++: strong; +: moderate; none. An excerpt:
(§1) Greenhouse Evaluations for Fungicidal Efficacy Disease: Wheat powdery mildew (WPM). Pathogen: Blumeria graminis f.sp. tritici Test Procedure: 1. Wheat seed is planted in plastic pots and maintained in the greenhouse. 2. When the primary leaf (wheat) is fully expanded, formulated test compounds and adjuvants are sprayed with a single nozzle overhead track sprayer at a rate of 200 l/ha. Plants are then allowed to air-dry. 3. Inoculation precedes treatment by 2 days in the case of curative evaluations and follows treatment by 3-4 days in case of residual evaluations. For inoculation, plants are set up on greenhouse benches with bottom watering mats and inoculated by dusting them with conidia from powdery mildew infected plants (stock cultures at an age of 10-14 days). Between inoculation and treatment for curative evaluations and between treatment and inoculation for residual evaluations, plants are maintained in the greenhouse with bottom watering. In antisporulation tests, inoculation preceeds compound application by three days. Scale for Anti-Sporulation Effect: +++=complete (no spore release); ++=strong; +=moderate; o=none.

Assay [2] has the same test system. Description: Greenhouse wheat powdery mildew (WPM) 4 day residual disease control. The following applies: adjuvant alone, NOP 1000 ppm, BB-4 0 ppm.
Source text: as §1, with “watering. 4. Disease on the primary leaf (wheat) as percent leaf area with disease symptoms/signs is evaluated about 7 days after inoculation.” for “watering.”, “the case of wheat, the tips and bases of the leaves are excluded from the evaluation. Percent disease control is then calculated” for “antisporulation tests, inoculation preceeds compound application”, “the following is formula: [formula] Formulation, Reference Compounds and Controls: 1. Formulated compounds are diluted using deionized water. 2. […]” for “three days. Scale for Anti-Sporulation Effect: +++=complete (no spore release); ++=strong; +=moderate; o=none.”

The test system is the same in assay [3]. Description: Greenhouse wheat powdery mildew (WPM) 2 day curative disease control. The settings on record: Table I; adjuvant alone, NOP 1000 ppm, BB-4 0 ppm.
Source text: as §1, with “watering. 4. Disease on the primary leaf (wheat) as percent leaf area with disease symptoms/signs is evaluated about 7 days after inoculation.” for “watering.”, “the case of wheat, the tips and bases of the leaves are excluded from the evaluation. Percent disease control is then calculated” for “antisporulation tests, inoculation preceeds compound application”, “the following is formula: [formula] Formulation, Reference Compounds and Controls: 1. Formulated compounds are diluted using deionized water. 2. […]” for “three days. Scale for Anti-Sporulation Effect: +++=complete (no spore release); ++=strong; +=moderate; o=none.”

`CCCCCCCCN1CCCC1=O` [NOP, N-octylpyrrolidone]: the “WPM Antisporulation Effect” value in assay [1] is listed as “o”. For the same compound, the “WPM 4 day Residual Disease Control (%)” value is on record as 9% in assay [2] (Table I) and 0% in assay [2] (Table III). Also, the “WPM 2 day Curative Disease Control (%)” value in assay [3] amounted to 14%.
